Source: patent publication US7517902B2, “Substituted indazoles, compositions containing the same, and the preparation and use thereof” (Aventis Pharma S.A., priority 2004, dated 2009)
Structures can show the parent of a compound that is named as a salt.

Columns and labels:
Format in all cases: biochemical
human Tie2 = biological target: T1, human Tie2 (Homo sapiens, UniProt Q02763); assay: Tie2 assay of PLC phosphorylation (FlashPlate); details: read-out: IC 50 TIE2
T1 construct: amino acids of the intracellular domain 776-1124; made in house
Procedure: The coding sequence of human Tie2, corresponding to the amino acids of the intracellular domain 776-1124, was generated by PCR, using the cDNA isolated from human placenta as a model. This sequence was introduced into a baculovirus expression vector pFastBacGT in the form of a GST fusion protein.
The inhibitory effect of the molecules is determined in an assay of PLC phosphorylation by Tie2 in the presence of GST-Tie2 purified to approximately 80% homogeneity. The substrate is composed of the SH2-SH3 fragments of PLC expressed in the form of a GST fusion protein.
The kinase activity of Tie2 is measured in a 20 mM MOPS buffer, pH 7.2, containing 10 mM MgCl2, 10 mM MnCl2, 1 mM DTT, 10 mM of glycerol-phosphate. In a 96-well FlashPlate plate, kept on ice, a reaction mixture is deposited which is composed of 70 μl of kinase buffer containing 100 ng of GST-Tie2 enzyme per well. Subsequently 10 μl of the test molecule diluted to a concentration of 10% maximum in DMvSO are added. For a given concentration, each measurement is carried out in quadruplicate. The reaction is initiated by adding 20 μl of solution containing 2 μg of GST-PLC, 2 μM of cold ATP and 1 μCi of ^33P[ATP]. After 1 hour of incubation at 37° C., the reaction is terminated by adding 1 volume (100 μl) of 200 mM EDTA. Following removal of the incubation buffer, the wells are washed three times with 300 μl of PBS. The radioactivity is measured on a Wallac MicroBeta 1450.
The inhibition of Tie2 activity is calculated and expressed as a percentage inhibition relative to the control activity determined in the absence of compound.

Aurora2 = biological target: T2, Aurora2 (Homo sapiens, UniProt O14965); assay: Aurora2 enzyme assay, NuMA substrate phosphorylation (Flashplate); details: read-out: IC 50 Aurora2
T2 construct: Aurora 2: whole recombinant protein comprising an N-terminal histidine tail; His tag (histidine tail) (N); made in house; host or cells: E. coli
T2 sequence (O14965 1-403): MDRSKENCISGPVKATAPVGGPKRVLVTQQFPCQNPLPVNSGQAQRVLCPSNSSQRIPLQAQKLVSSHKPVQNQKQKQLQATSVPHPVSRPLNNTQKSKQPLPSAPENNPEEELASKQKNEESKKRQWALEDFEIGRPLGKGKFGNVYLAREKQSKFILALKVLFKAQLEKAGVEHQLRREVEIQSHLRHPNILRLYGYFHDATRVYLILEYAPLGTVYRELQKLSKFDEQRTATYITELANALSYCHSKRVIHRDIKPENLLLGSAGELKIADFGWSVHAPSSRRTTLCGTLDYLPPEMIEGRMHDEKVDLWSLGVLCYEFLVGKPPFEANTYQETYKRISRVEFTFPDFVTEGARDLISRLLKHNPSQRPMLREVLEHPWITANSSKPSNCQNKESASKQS
Procedure: The inhibitory effect of compounds with respect to the kinases Aurora1 and Aurora2 is determined by an enzyme assay employing radioactivity detection.
The kinase activity of Aurora 1 and Aurora 2 is evaluated by the phosphorylation of the substrate Numa-histidine in the presence of radiolabeled ATP ([^33P]ATP), using 96-well Flashplate plates in which nickel chelate is fixed to the surface of the microplate. The amount of ^33P phosphate incorporated in the NuMA substrate is proportional to the activity of the enzyme Aurora1 or Aurora2.
The proteins are produced in the protein production laboratory of the SanofiAventis group.
Aurora 2: whole recombinant protein comprising an N-terminal histidine tail, expressed in E. coli and purified to more than 82%.
NuMA (nuclear protein that associates with the mitotic apparatus) fragment of 424 amino acids, expressed in E. coli, whose N-terminal end has been labeled with histidine and used as a substrate for the two Aurora enzymes.
The microplates used are 96-well Flash-Plate plates with nickel chelate (Perkin Elmer, model SMP107).
The products for evaluation are incubated in a reaction volume of 100 μL per well in the presence of 10 nM of Aurora 1 or Aurora 2, 500 nM of NuMA substrate in a buffer composed of 50 mM of Tris/HCl (pH 7.5), 50 mM NaCl, 5 mM MgCl2 (Aurora-B) or 10 mM MgCl2 (Aurora-A) and 1 mM of DTT, at 37° C.
In each well, 80 μL of the enzyme/substrate incubation buffer are distributed, followed by 10 μL of the product to be evaluated, in variable concentrations. The reaction is initiated by adding 1 μM of final ATP containing 0.2 μCi of [^33P]ATP (10 μL). After 30 minutes of incubation, the reaction is terminated by simply removing the reaction buffer and each well is washed twice with 300 μl of the Tris/HCl buffer. The radioactivity is then measured in each well by means of a scintillation apparatus, Packard, Top count model.
The control enzyme activity of Aurora is expressed by the number of counts per minute obtained within 30 minutes, after deduction of the background noise (reaction mixture not containing the enzyme). The evaluation of the various test products is expressed in percentage inhibition of the Aurora activity relative to the control.

human KDR enzyme = biological target: T3, human KDR enzyme (Homo sapiens, UniProt P35968); assay: KDR substrate phosphorylation assay (scintillation, 96-well plate)
T3 construct: The cytoplasmic domain of the human KDR enzyme was cloned in the form of a GST fusion; GST; made in house; host or cells: SF21 insect cells (baculovirus, pFastBac)
Procedure: The inhibitory effect of the compounds is determined in an assay of substrate phosphorylation by the KDR enzyme in vitro using a scintillation technique (96-well plate, NEN).
The cytoplasmic domain of the human KDR enzyme was cloned in the form of a GST fusion into the baculovirus expression vector pFastBac. The protein was expressed in SF21 cells and purified to approximately 60% homogeneity.
The KDR kinase activity is measured in 20 mM MOPS, 10 mM MgCl2, 10 mM MnCl2, 1 mM DTT, 2.5 mM EGTA, 10 mM β-glycerophosphate, pH=7.2, in the presence of 10 mM MgCl2, 100 μM Na3VO4, 1 mM NaF. 10 μl of the compound are added to 70 μl of kinase buffer, containing 100 ng of KDR enzyme at 4° C. The reaction is triggered by adding 20 μl of solution containing 2 μg of substrate (SH2-SH3 fragment of PLCγ expressed in the form of a GST fusion protein), 2 μCi γ^33P[ATP] and 2 μM cold ATP. After 1 hour of incubation at 37° C., the reaction is stopped by adding 1 volume (100 μl) of 200 mM EDTA. The incubation buffer is withdrawn and the wells are washed three times with 300 μl of PBS. The radioactivity is measured in each well using a Top Count NXT radioactivity counter (Packard).
The background noise is determined by measuring the radioactivity in four different wells containing the radioactive ATP and the substrate alone.
A control for total activity is measured in four different wells containing all of the reagents (γ^33P-[ATP], KDR and PLCγ substrate), but in the absence of compound.
The inhibition of KDR activity with the compound of the invention is expressed in percentage inhibition of the control activity determined in the absence of compound.
The compound SU5614 (Calbiochem) (1 μM) is included in each plate as an inhibition control.

T1 sequence (Q02763 776-1124): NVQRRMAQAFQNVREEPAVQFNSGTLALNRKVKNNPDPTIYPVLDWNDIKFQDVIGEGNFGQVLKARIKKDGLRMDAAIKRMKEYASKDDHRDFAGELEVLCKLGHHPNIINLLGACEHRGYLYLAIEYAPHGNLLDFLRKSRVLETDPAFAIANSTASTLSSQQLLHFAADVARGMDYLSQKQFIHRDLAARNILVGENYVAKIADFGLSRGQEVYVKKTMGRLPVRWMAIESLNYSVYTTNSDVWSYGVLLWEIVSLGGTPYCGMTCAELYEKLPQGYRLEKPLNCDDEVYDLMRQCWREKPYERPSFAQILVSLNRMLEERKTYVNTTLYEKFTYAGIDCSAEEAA
T3 sequence (P35968 786-1356 limits assumed): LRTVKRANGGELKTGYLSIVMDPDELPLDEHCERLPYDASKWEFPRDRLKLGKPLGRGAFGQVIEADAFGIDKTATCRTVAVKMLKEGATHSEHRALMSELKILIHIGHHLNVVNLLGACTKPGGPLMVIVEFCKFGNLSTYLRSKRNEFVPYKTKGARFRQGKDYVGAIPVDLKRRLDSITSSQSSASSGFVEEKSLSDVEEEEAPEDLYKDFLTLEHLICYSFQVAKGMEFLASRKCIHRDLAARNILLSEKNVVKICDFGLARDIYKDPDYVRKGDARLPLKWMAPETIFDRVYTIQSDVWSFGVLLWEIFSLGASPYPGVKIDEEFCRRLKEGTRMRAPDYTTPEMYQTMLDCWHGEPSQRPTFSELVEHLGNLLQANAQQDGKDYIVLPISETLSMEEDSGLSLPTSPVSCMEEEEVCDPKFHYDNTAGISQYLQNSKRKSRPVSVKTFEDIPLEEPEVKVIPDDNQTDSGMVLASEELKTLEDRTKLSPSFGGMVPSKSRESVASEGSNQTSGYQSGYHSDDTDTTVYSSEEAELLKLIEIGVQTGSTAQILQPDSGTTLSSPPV

Compound | IC50 (human Tie2) | IC50 (Aurora2) | IC50 (human KDR enzyme)
Nc1n[nH]c2c(F)c(-c3ccc(NC(=O)Nc4cc(C(F)(F)F)ccc4F)cc3)ccc12 [Example 7, 1-[4-(3-Amino-7-fluoro-1H-indazol-6-yl)phenyl]-3-(2-fluoro-5-trifluoro-methylphenyl)urea hydrochloride] | 51 nM | 172 nM | 122 nM
O=C(Nc1ccc(-c2ccc3c(NC(=O)c4ccsc4)n[nH]c3c2F)cn1)Nc1cc(C(F)(F)F)ccc1F [Example 24, 1-(5-{7-Fluoro-3-[(thiophen-3-yl)carbonylamino]-1H-indazol-6-yl}pyridin-2-yl)-3-(2-fluoro-5-trifluoromethylphenyl)urea] | 229 nM |  | 
O=C(Nc1ccc(-c2ccc3c(NC(=O)c4ccsc4)n[nH]c3c2F)cc1)Nc1cccc(C(F)(F)F)c1 [Example 15, 1-(4-{7-Fluoro-3-[(thiophen-3-yl)carbonylamino]-1H-indazol-6-yl}phenyl)-3-(5-trifluoromethylphenyl)urea] | 20 nM | 28 nM | 40 nM
Cc1ccc(-n2nc(C(C)(C)C)cc2NC(=O)Nc2ccc(-c3ccc4c(NC(=O)c5ccsc5)n[nH]c4c3F)cc2)cc1 [Example 16, 1-(4-{7-Fluoro-3-[(thiophen-3-yl)carbonylamino]-1H-indazol-6-yl}phenyl)-3-(5-tert-butyl-2-p-tolyl-2H-pyrazol-3-yl)urea] | 3 nM | 142 nM | 19 nM
Nc1ccc(-c2ccc3c(NC(=O)c4ccsc4)n[nH]c3c2F)cc1 [Example 4, 6-(4-Aminophenyl)-7-fluoro-3-[(thiophen-3-yl)carbonylamino]-1H-indazole hydrochloride] | 799 nM | 465 nM | 164 nM
Nc1n[nH]c2cc(-c3ccc(NC(=O)Nc4cc(C(F)(F)F)ccc4F)cc3)ccc12 [Example 1, 1-[4-(3-Amino-1H-indazol-6-yl)phenyl]-3-(2-fluoro-5-trifluoromethylphenyl)urea hydrochloride] | 1780 nM | 113 nM | 33 nM
Nc1n[nH]c2c(F)c(-c3ccc(NC(=O)Nc4ccccc4F)cc3)ccc12 [Example 22, 1-[4-(3-Amino-7-fluoro-1H-indazol-6-yl)phenyl]-3-(2-fluorophenyl)urea] | 5850 nM | 143 nM | 1940 nM
O=C(Nc1ccc(-c2ccc3c(NC(=O)c4ccsc4)n[nH]c3c2F)cc1)Nc1cc(C(F)(F)F)ccc1F [Example 6, 1-(4-{7-Fluoro-3-[(thiophen-3-yl)carbonylamino]-1H-indazol-6-yl}phenyl)-3-(2-fluoro-5-trifluoromethylphenyl)urea] | 9 nM | 36 nM | 8 nM
O=C(Nc1ccc(-c2c(F)c(F)c3c(NC(=O)c4ccsc4)n[nH]c3c2F)cc1)Nc1cc(C(F)(F)F)ccc1F [Example 9, 1-(4-{4,5,7-Trifluoro-3-[(thiophen-3-yl)carbonylamino]-1H-indazol-6-yl}-phenyl)-3-(2-fluoro-5-trifluoromethylphenyl)urea] | 46 nM | 1750 nM | 693 nM
O=C(Nc1ccc(-c2ccc3c(NC(=O)c4ccsc4)n[nH]c3c2F)cc1F)Nc1cc(C(F)(F)F)ccc1F [Example 11, 1-(4-{7-Fluoro-3-[(thiophen-3-yl)carbonylamino]-1H-indazol-6-yl}-2-fluorophenyl)-3-(2-fluoro-5-trifluoromethylphenyl)urea] | 11 nM | 185 nM | 37 nM
CC(C)(C)c1cc(NC(=O)Nc2ccc(-c3ccc4c(N)n[nH]c4c3F)cc2)no1 [Example 21, 1-[4-(3-Amino-7-fluoro-1H-indazol-6-yl)phenyl]-3-(5-tert-butylisoxazol-3-yl)urea] | 174 nM | 68 nM | 85 nM
Nc1n[nH]c2c(F)c(-c3ccc(NC(=O)Nc4ccccc4)cc3)ccc12 [Example 20, 1-[4-(3-Amino-7-fluoro-1H-indazol-6-yl)phenyl]-3-phenylurea] | 502 nM | 63 nM | 
